Test results taken from the supplement of paper PMC10307832.

Tests used:
Assay in all cases: relative viability (nuclei count vs DMSO), 5 days (fraction); higher = more cells survive
[1] = compound: COC1=CC=C(C=C1)COC2=C(C=C(C=C2)CC3=CN=C(N=C3N)N)OC [GW-2580]
Method in brief: (§1)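 Cells of lung cancer lines were placed in 1536-well plates and kept overnight at 37 °C. Pinning then delivered five library-drug doses (not always all listed), spaced by √10, onto plates anchored with vehicle, and the cells were left 5 days without changing medium. One step fixed, permeabilised and stained them with Hoechst, and MetaXpress counted nuclei in 4× images. Viability, as a median over plates, is treated-well nuclei divided by vehicle-well nuclei, with acceptance only at control CV below 25% and at least one doubling.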

[2] = compound: Cc1cnc(Nc2ccc(OCCN3CCCC3)cc2)nc1Nc1cccc(S(=O)(=O)NC(C)(C)C)c1 [Fedratinib]
Method in brief: as §1

[3] = compound: COC1=CC=C(C=C1)COC2=C(C=C(C=C2)CC3=CN=C(N=C3N)N)OC [GW-2580] + CC(=O)Nc1cccc(-n2c(=O)n(C3CC3)c(=O)c3c(Nc4ccc(I)cc4F)n(C)c(=O)c(C)c32)c1 [Trametinib] (partner 0.02 µM)
Method in brief: (§2)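 Lung cancer cell lines were seeded in 1536-well plates and dosed by pin tool the next day, with either a single drug or a fixed anchor-drug dose combined with five library-drug doses (not always all listed) spaced in √10 steps. Five days later, one step fixed the cells and stained their nuclei (final 0.05% Triton X-100, 1% formaldehyde, 1 ug/ml Hoechst), and nuclei were counted on 4× images. Relative viability is the nuclei count in treated wells divided by the count in vehicle wells, and each value is the median of duplicate plates.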

[4] = compound: Cc1cnc(Nc2ccc(OCCN3CCCC3)cc2)nc1Nc1cccc(S(=O)(=O)NC(C)(C)C)c1 [Fedratinib] + CC(C)C[C@H](NC(=O)[C@H](Cc1ccccc1)NC(=O)c1cnccn1)B(O)O [Bortezomib] (partner 0.002 µM)
Method in brief: as §2

[5] = compound: Cc1cnc(Nc2ccc(OCCN3CCCC3)cc2)nc1Nc1cccc(S(=O)(=O)NC(C)(C)C)c1 [Fedratinib] + CC1(C)CCC(c2ccc(Cl)cc2)=C(CN2CCN(c3ccc(C(=O)NS(=O)(=O)c4ccc(N[C@H](CCN5CCOCC5)CSc5ccccc5)c(S(=O)(=O)C(F)(F)F)c4)cc3)CC2)C1 [Navitoclax] (partner 0.5 µM)
Method in brief: as §2

[6] = compound: Cc1cnc(Nc2ccc(OCCN3CCCC3)cc2)nc1Nc1cccc(S(=O)(=O)NC(C)(C)C)c1 [Fedratinib] + NC(=O)Nc1cc(-c2cccc(F)c2)sc1C(=O)N[C@H]1CCCNC1 [AZD7762] (partner 0.2 µM)
Method in brief: as §2

Cell Line	relative viability ([1]; 0.08 µM)	relative viability ([1]; 0.8 µM)	relative viability ([1]; 2.53 µM)	relative viability ([1]; 8 µM)	relative viability ([2]; 0.1 µM)	relative viability ([2]; 0.3162 µM)	relative viability ([2]; 1 µM)	relative viability ([3]; first compound 0.08 µM)	relative viability ([3]; first compound 0.8 µM)	relative viability ([3]; first compound 2.53 µM)	relative viability ([3]; first compound 8 µM)	relative viability ([4]; first compound 0.1 µM)	relative viability ([4]; first compound 0.3162 µM)	relative viability ([4]; first compound 1 µM)	relative viability ([5]; first compound 0.1 µM)	relative viability ([5]; first compound 0.3162 µM)	relative viability ([5]; first compound 1 µM)	relative viability ([6]; first compound 0.1 µM)	relative viability ([6]; first compound 0.3162 µM)	relative viability ([6]; first compound 1 µM)
ChaGo-K-1	0.938	0.985	1.01	0.999	0.953	0.948	0.958	0.921	0.921	0.881	0.867	0.932	1.1	0.777	0.786	1.11	0.425	0.921	0.829	0.81
PC-14	1.07	1.19	0.966	0.969	0.986	1.09	0.906	0.806	0.675	0.585	0.637	0.885	0.81	0.951	1.16	1.08	0.989	0.275	0.349	0.215
NCI-H1437	1	1.06	0.926	0.835	0.978	0.982	0.926	0.524	0.571	0.448	0.415	0.432	0.473	0.191	1.14	1.02	0.988	1.13	1.13	1.09
NCI-H460	1.07	1.05	1.01	0.952	0.997	0.974	0.979	0.286	0.168	0.0886	0.187	1.84	1.13	1.04	1.05	1.03	0.969	0.738	0.563	0.544
NCI-H1666	0.976	1.38	0.937	0.97	0.859	1.04	0.982	0.846	0.767	0.796	0.872	0.649	0.944	0.276	0.877	0.96	0.946	0.751	0.836	0.807
NCI-H1651	1.06	1.08	0.952	0.977	0.958	0.984	0.945	0.795	0.849	0.786	0.807	0.965	0.951	0.871	0.914	0.958	1.07	0.502	0.404	0.435
NCI-H1755	1.06	1.07	0.944	0.878	0.991	1	0.909	0.786	0.838	0.777	0.702	0.938	0.92	0.903	1	0.972	0.894	0.422	0.47	0.43
HARA	1.11	1.16	0.951	0.902	0.863	0.903	0.803	0.753	0.714	0.59	0.274	1.41	1.18	0.404	1.17	1.12	1.15	0.429	0.28	0.23
NCI-H596	1.03	1.07	1.02	1.18	0.99	0.973	0.851	0.806	0.979	0.689	0.795	1.01	1.21	0.919	0.853	0.992	0.976	0.965	1.04	1.13
NCI-H23	1.03	1.11	0.983	0.99	1.01	0.908	0.597	0.398	0.371	0.404	0.395	0.946	0.943	0.173	0.87	0.75	0.73	0.356	0.27	0.183
LCLC-97TM1	0.972	1.07	0.848	1.03	1.05	1.02	0.778	0.189	0.196	0.192	0.196	0.636	0.527	0.228	0.275	0.394	0.412	0.342	0.154	0.21
EPLC-272H	0.995	1.15	0.763	0.891	0.921	0.938	0.327	0.281	0.273	–	0.32	0.946	0.83	0.451	1.14	0.936	1.09	0.222	0.24	0.168
NCI-H1915	1.04	1.02	1.07	0.969	1.03	0.97	0.658	0.312	0.288	0.251	0.279	0.986	0.872	0.662	0.747	0.726	0.761	0.754	0.66	0.67
NCI-H2405	0.99	1.13	0.902	0.936	0.937	0.939	0.834	0.68	0.586	0.596	0.563	1.05	0.77	0.957	0.583	0.895	0.506	0.7	0.764	0.528
NCI-H322M	0.941	1.1	0.971	0.946	0.873	1	0.678	0.466	0.485	0.428	0.59	1.19	1.16	1.06	1.16	1.18	1.23	0.596	0.591	0.414
NCI-H838	1.09	1.05	0.884	1	0.928	0.996	0.8	0.576	0.514	0.411	0.632	0.588	0.808	0.208	1.11	1.17	1.06	0.961	0.913	0.906
CAL-12T	0.995	1.03	0.933	1.01	0.93	0.996	0.859	0.33	0.284	0.356	0.436	0.963	1.07	0.805	1	1.15	1.13	0.594	0.618	0.666
